Measurements: patent US20030148963A1 (priority 2000, published 2003)
Values joined by “and” are separate entries in the source; they are usually repeats but may differ in a detail not shown here. Equal entries are not always repeated. Marks after values point to notes of the source that are not given here.

Experiments:
[1] = system: S. aureus-induced arthritis
Description: NMRI mice of both sexes, 6-8 weeks old, were obtained from B&K Universal AB (Stockholm, Sweden). They were housed in the animal facility of the Department of Rheumatology, University of Göteborg, under standard conditions of light and temperature and fed standard laboratory chow and water ad libitum.
S. aureus LS-1 strain was originally isolated from a swollen joint of a spontaneously arthritic NZB/W mouse. The bacteria were cultured for […] on blood agar plates, replated for another 24 h, washed and kept frozen at −20° C. in PBS containing 5% bovine serum albumin ([…]) and 10% dimethyl sulfoxide ([…]) until used. Before use, the bacterial solution was thawed and washed in PBS. Viable count was done to check the number of bacteria in each bacterial solution mice were given i.v. injections (in the tail vein) of 0.2 ml of bacterial solution
All the mice were monitored individually. Their limbs were inspected visually every day during the experiment. Arthritis was defined as visible joint erytbema and/or swelling of at least one joint. To evaluate the intensity of arthritis, a clinical scoring system of 0 to 3 points for each limb was used (1 point, mild swelling and/or erytema; 2 points, moderate swelling and erythema; 3 points, marked swelling and erytema). The arthritic index was constructed by adding the scores from all four limbs for each animal. Previous study has shown that there is a good correlation between the clinical and histopathological appearance of arthritis. The overall condition of each mouse was evaluated by assessing its weight, general appearance, alertness, and skin abnormalities.

S. aureus LS-1 = experiment: Determination of bacterial growth in kidneys, blood and joints; assay type: in vivo; conditions: for Bacterial growth in blood / Bacterial growth in kidney: mean ± SEM
Description: On days 3 and 6-7 after S. aureus inoculation blood samples were obtained and the kidneys were aseptically removed. Appropriate dilutions were made and 0.1 ml of tissue suspensions and of whole blood was plated on agar plates containing 5% horse blood. Six days after the inoculation bacterial samples from the talocrural and radiocarpal joints were obtained and plated on agar plates, containing 7.5% sodium chloride. After incubation for 48 h at 37° C. the bacterial colonies were counted and tested for catalase and coagulase activity.

[2] = system: collagen induced arthritis (CIA); experiment: Collagen induced arthritis, clinical evaluation; assay type: in vivo, B10.QxDBA/1 female mice
Description: B10.QxDBA/1 female mice were used in all experiments. They were aged from 11-16 weeks. In all experiments the mice were age-matched. The mice were kept in the animal facility at the University of Göteborg, under standard conditions of light and temperature and fed standard laboratory chow and water ad libitum.
Rat type II collagen (CII) from a chondrosarcoma was prepared by pepsin digestion and purification as described previously (9). The preparation of CII was dissolved at a concentration of 2 mg/ml in 0.1M acetic acid and stored at 4° C. Arthritis was induced by intradermal injection at the base of the tail with 50 μl of 100 μg CII emulsified with an equal volume of complete Freuid/s adjuvant (CFA; containing Mycobacterium butyricum, Difco, Detroit, Mich.). Mice were boosted with the same volume and concentrations of CII emulsified in incomplete Freund's adjuvant (IFA; Difco) 21 days after the first immunization.
Mice were primed and booster-immunized with CII. They were divided into three groups. […] The third group of mice were controls (n—17), receiving treatment with PBS. Prior to the start of the experiment, six mice in each group were bled for hematological analyses.
At regular time points the mice were examined concerning development of arthritis. Arthritis was defined as visible joint erythema and/or swelling of at least one joint. To evaluate the intensity of arthritis, a clinical scoring system of 0 to 3 points for each limb was used (1 point, mild swelling and/or erythema; 2 points, moderate swelling and erythema; 3 points, marked swelling and erythema). The arthritic index was constructed by adding the scores from all four limbs for each animal (11).

[3] = system: collagen induced arthritis (CIA); experiment: Collagen induced arthritis, histopathological examination of joints; assay type: in vivo, B10.QxDBA/1 female mice
Description: Histopathological examination was performed after routine fixation, decalcification, paraffin embedding, and staining with hematoxylin and eosin. All the slides were coded and the joints were studied with regard to synovial hypertrophy (defined as a synovial membrane thickness of more than two cell layers), pannus formation (synovial tissue overlaying the joint cartilage), and cartilage and bone destruction (loss of tissue integrity with resulting ingrowth of fibrotic tissue) (11). The severity of synovial hypertrophy and cartilage/bone destruction was scored from 0 (intact synovial, cartilage/bone tissue) to 3 (intense synovitis with total destruction of cartilage and/or bone).

immunoglobulins = experiment: Serum total immunoglobulins (single radial immunodiffusion); assay type: in vivo, B10.QxDBA/1 female mice; conditions: serum at end of experiment, mean ± SEM
Description: Serum levels of immunoglobulins were measured by the single radial immunodiffusion technique (12). Antiserum was purchased from Dako (Dako A/S, Denmark) and mouse immunoglobulin standards were obtained from Sigma (Sigma Chemical Co., St. Louis, Mo.).

peripheral leukocytes = experiment: Hematological analyses in CII immunized mice; assay type: in vivo, B10.QxDBA/1 female mice
Description: Mice were bled from the tail into heparinized tubes at different time-points. The leukocytes were counted in a hemacytometer (Toa Medical Electronics, Kobe, Japan). Fifty microliters of the heparinized blood was analyzed in a FACScan cytometer (Becton Dickinson, San Jose, Calif.) to determine the percentages of lymphocytes, granulocytes, and monocytes. The absolute numbers of different leukocyte subsets were then calculated from the total leukocyte counts.

[4] = system: draining lymph node cells; experiment: Draining lymph node response after CII immunization; assay type: in vivo, mice
IL-1α = experiment: IL-1 release by IC-21 macrophage cell line; assay type: cell-based, murine
[5] = Day 3 after 1-2×10^7 CFU S. aureus
[6] = Day 6-7 after 1-2×10^7 CFU S. aureus
[7] = Etoposide pretreated, n 16, day 61
[8] = Etoposide treated (from day 40), n 17, day 61, mean ± SEM
[9] = Etoposide-pretreated, Day-2 (prior to experiment, baseline)
[10] = Etoposide-treated (from day 40), Day 61
[11] = Etoposide-treated (from day 40), Day-2 (baseline)

## COc1cc([C@@H]2c3cc4c(cc3[C@@H](O[C@@H]3O[C@@H]5CO[C@@H](C)O[C@H]5[C@H](O)[C@H]3O)[C@H]3COC(=O)[C@H]23)OCO4)cc(OC)c1O [Etoposide]
[1]; 1-2×10^7 CFU S. aureus, starting four days after inoculation, FIG. 1B
  Mortality: higher mortality than the controls
[1]; S. aureus infected mice vs controls, data not shown
  Weight loss: more prominent
[1]; six days after inoculation, 1-2×10^7 CFU S. aureus, controls 70%
  Frequency of clinical signs of arthritis: 35%
[1]; suboptimal dose of bacteria 1×10^6 CFU, 8 days after inoculation, controls 1 out of 10
  Mice died: 6 out of 10
S. aureus LS-1; 6 days after inoculation, controls 3 out of 10
  Mice with bacteria recovered from joints: 3 out of 8
S. aureus LS-1; [5]
  Bacterial growth in blood: 60 × 10^7 CFU/ml
  Bacterial growth in kidney: 3 ± 2 × 10^7 CFU
S. aureus LS-1; [6]
  Bacterial growth in blood: 290 ± 100 × 10^7 CFU/ml
  Bacterial growth in kidney: 67 ± 12 × 10^7 CFU
[2]; Etoposide pretreated, Day 46
  Arthritic score of diseased mice: 0
[2]; Etoposide pretreated, Day 53
  Arthritic score of diseased mice: 0
[2]; Etoposide pretreated, Day 61
  Arthritic score of diseased mice: 0
[2]; Etoposide treated (from day 40), Day 46, mean ± SEM
  Arthritic score of diseased mice: 2.4 ± 0.2 (n = 5)
[2]; Etoposide treated (from day 40), Day 53, mean ± SEM
  Arthritic score of diseased mice: 5.4 ± 1.3 (n = 5)
[2]; Etoposide treated (from day 40), Day 61, mean ± SEM
  Arthritic score of diseased mice: 5.6 ± 1.3 (n = 5)
[2]; Etoposide-pretreated: 12.5 mg/kg from two days prior to CII immunization, then 4 days weekly, almost nine weeks
  Mice with clinical signs of arthritis: none of 19
[2]; Etoposide-treated: 12.5 mg/kg 4 days per week from 40 days after immunization, 5 of 17, controls 53%
  Mice exhibiting arthritis at the end of the experiment: 29%
[2]; between or within the groups (pretreated, treated, controls)
  Changes in weight: No significant changes in weight
[2]; mice treated with etoposide at the onset of clinical arthritis
  Reduction of frequency of disease: 50%
[3]; [7]
  Cartilage/bone destruction score: 0
  Synovial hypertrophy score: 0
[3]; [8]
  Cartilage/bone destruction score: 4.5 ± 2.4
  Synovial hypertrophy score: 2.4 ± 1.1
immunoglobulins; Etoposide-pretreated
  Total immunoglobulin levels: 9.2±0.5 mg/ml and 9.2 ± 0.5a mg/ml
immunoglobulins; Etoposide-treated (from day 40)
  Total immunoglobulin levels: 8.5±0.7 mg/ml and 8.5 ± 0.8^a mg/ml
Peripheral leukocytes; Etoposide-pretreated, Day 61
  Granulocytes: 698 ± 341^b × 10^4/ml
  Lymphocytes: 7.1 ± 3.4 × 10^6/ml
  Monocytes: 67 ± 20 × 10^4/ml
Peripheral leukocytes; [9]
  Granulocytes: 71 ± 13 × 10^4/ml
  Lymphocytes: 4.7 ± 0.3 × 10^6/ml
  Monocytes: 18 ± 4 × 10^4/ml
Peripheral leukocytes; [10]
  Granulocytes: 991 ± 326^b × 10^4/ml
  Lymphocytes: 14.3 ± 3.3^b × 10^6/ml
  Monocytes: 92 ± 24^a × 10^4/ml
Peripheral leukocytes; [11]
  Granulocytes: 87 ± 20 × 10^4/ml
  Lymphocytes: 5.9 ± 0.8 × 10^6/ml
  Monocytes: 19 ± 3 × 10^4/ml
[4]; 10 days after CII immunization, immunohistochemical stainings
  Numbers of B cells, T cells, macrophages and germinal centers in inguinal lymph nodes: no significant effects on numbers
[4]; lymph node cells challenged in vitro with CII, vs PBS controls
  Antibodies to CII in lymph node cell cultures: not produced at all
[4]; lymph node cells challenged in vitro with CII, data not shown
  T cell functions (proliferation, IFN-γ secretion) of lymph node cells: no difference in T cell functions
IL-1α
  Levels of IL-1α: No major differences
